Experimental data from ChEMBL document CHEMBL4130510, “Cytotoxic Dibohemamines D-F from a Streptomyces Species” (J Nat Prod, 2017).

Legend:
HepG2 = assay: Cytotoxicity against human HepG2 cells by SRB assay; type: functional, cell-based
A549 = assay: Cytotoxicity against human A549 cells by SRB assay; type: functional, cell-based

Structure (SMILES): CC(C)=CC(=O)NC1=C(CC2=C(NC(=O)C=C(C)C)N3[C@@H](C)[C@H]4O[C@H]4[C@@]3(C)C2=O)C(=O)[C@]2(C)C[C@H](O)[C@H](C)N12
- IC50 (HepG2): 0.3 µM
- IC50 (A549): 1.1 µM

Structure (SMILES): CC(C)=CC(=O)NC1=C(CC2=C(NC(=O)C=C(C)C)N3[C@@H](C)[C@H]4O[C@H]4[C@@]3(C)C2=O)C(=O)[C@]2(C)[C@H](O)C[C@H](C)N12
- IC50 (HepG2): 7.3 µM
- IC50 (A549): 20.2 µM

Structure (SMILES): CC(C)=CC(=O)NC1=C(CC2=C(NC(=O)C=C(C)C)N3[C@@H](C)[C@H]4O[C@H]4[C@@]3(C)C2=O)C(=O)[C@]2(C)[C@@H]3O[C@@H]3[C@H](C)N12
- IC50 (HepG2): 10.8 µM
- IC50 (A549): 39.2 µM

Structure (SMILES): CC(C)=CC(=O)NC1=CC(=O)[C@]2(C)C[C@H](O)[C@H](C)N12 [BOHEMAMINE B]
- IC50 (HepG2): 181 µM
- IC50 (A549): 502 µM

Structure (SMILES): CC(C)=CC(=O)NC1=CC(=O)[C@]2(C)[C@@H]3O[C@@H]3[C@H](C)N12 [BOHEMAMINE]
- IC50 (HepG2): 29.7 µM
- IC50 (A549): 290 µM

Structure (SMILES): COc1cccc2c1C(=O)c1c(O)c3c(c(O)c1C2=O)C[C@@](O)(C(=O)CO)C[C@@H]3O[C@H]1C[C@H](N)[C@H](O)[C@H](C)O1 [DOXORUBICIN]
- IC50 (A549): 1.4 µM
